In publication PMC2911226, “Structural and Biochemical Characterization of the Human Cyclophilin Family of Peptidyl-Prolyl Isomerases” (PLoS Biology, 2010):

Experiments:
NKTR = biological target: T1, NKTR (Homo sapiens, UniProt P30414); experiment: Thermal stabilization assay (StarGazer static light scattering); assay type: binding; details: protein approximately 20 µM, compound 50 µM; shift vs basal Tagg
T1 construct: His6 with thrombin cleavage site (N); made in house; host or cells: E. coli BL21 Gold DE3
T1 sequence (P30414 10-175 limits assumed): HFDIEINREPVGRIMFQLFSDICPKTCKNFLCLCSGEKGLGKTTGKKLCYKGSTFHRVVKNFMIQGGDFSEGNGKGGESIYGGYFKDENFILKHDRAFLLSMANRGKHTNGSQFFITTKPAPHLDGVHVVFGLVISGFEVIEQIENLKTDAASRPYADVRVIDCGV
Source text: (§1) In order to elucidate the function of residues in the extended active site of the PPIase domain of the human cyclophilins, we probed the binding and catalytic function of these domains against either substrate or small-molecule inhibitors (see Figure 1 and Datapack S1 for graphical and tabular depictions of the active site). Three assays were utilized to explore these functions. […] This assay has been shown in several studies to be a reliable readout of small molecule binding for kinase and other enzyme families,[38]. […] Because of the inherent thermal stability characteristics of PPID and RanBP2, this technique was unable to distinguish between apo and cyclosporin-bound forms of those domains.
(§2) All protein samples used for static light scattering (StarGazer) trials were assessed for purity utilizing SDS-PAGE and verified for mass accuracy using mass spectrometry. Methods were generally as described as in [38]; protein at approximately 20 µM concentration was heated from room temperature to 80°C in the presence or absence of small molecules, including cyclosporins A, C, D, or H (LKT Labs, MN, USA). The […] were originally prepared in 100% DMSO at 50–100 mM concentration, then diluted to 50 µM for screening, thereby ensuring the final DMSO concentration was less than 5% during the experiment. […] Each compound was tested at least twice.

PPIA = biological target: T2, PPIA (Homo sapiens, UniProt P62937); experiment: as above; assay type: binding; details: protein approximately 20 µM, compound 50 µM; shift vs basal Tagg
T2 construct: His6 (thrombin cleavage site) (N); made in house; host or cells: E. coli BL21 Gold DE3
T2 sequence (P62937 7-163 limits assumed): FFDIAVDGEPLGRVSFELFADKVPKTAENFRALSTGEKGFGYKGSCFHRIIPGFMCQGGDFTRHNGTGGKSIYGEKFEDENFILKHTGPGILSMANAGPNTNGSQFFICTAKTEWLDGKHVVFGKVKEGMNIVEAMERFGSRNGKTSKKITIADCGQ
Source text: as §1, §2

PPIB = biological target: T3, PPIB (Homo sapiens, UniProt P23284); experiment: as above; assay type: binding; details: protein approximately 20 µM, compound 50 µM; shift vs basal Tagg
T3 construct: His6 (thrombin cleavage site) (N); made in house; host or cells: E. coli BL21 Gold DE3
T3 sequence (P23284 47-204 limits assumed): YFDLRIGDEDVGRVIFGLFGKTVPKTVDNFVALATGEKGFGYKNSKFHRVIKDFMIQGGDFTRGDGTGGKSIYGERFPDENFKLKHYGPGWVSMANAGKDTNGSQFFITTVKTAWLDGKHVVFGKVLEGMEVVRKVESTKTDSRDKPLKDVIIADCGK
Source text: as §1, §2

PPIC = biological target: T4, PPIC (Homo sapiens, UniProt P45877); experiment: as above; assay type: binding; details: protein approximately 20 µM, compound 50 µM; shift vs basal Tagg
T4 construct: His6 (thrombin cleavage site) (N); made in house; host or cells: E. coli BL21 Gold DE3
T4 sequence (P45877 41-198 limits assumed): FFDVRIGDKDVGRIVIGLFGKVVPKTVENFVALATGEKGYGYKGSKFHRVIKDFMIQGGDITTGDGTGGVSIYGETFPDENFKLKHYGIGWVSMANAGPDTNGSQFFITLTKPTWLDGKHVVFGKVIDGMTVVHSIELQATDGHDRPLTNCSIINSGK
Source text: as §1, §2

PPIE = biological target: T5, PPIE (Homo sapiens, UniProt Q9UNP9); experiment: as above; assay type: binding; details: protein approximately 20 µM, compound 50 µM; shift vs basal Tagg
T5 construct: His6 (thrombin cleavage site) (N); made in house; host or cells: E. coli BL21 Gold DE3
T5 sequence (Q9UNP9 143-299 limits assumed): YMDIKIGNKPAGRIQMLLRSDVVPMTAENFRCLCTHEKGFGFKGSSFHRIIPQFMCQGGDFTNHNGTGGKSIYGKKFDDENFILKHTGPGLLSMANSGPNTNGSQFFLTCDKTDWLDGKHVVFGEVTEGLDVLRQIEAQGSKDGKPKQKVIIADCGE
Source text: as §1, §2

PPIF = biological target: T6, PPIF (Homo sapiens, UniProt P30405); experiment: as above; assay type: binding; details: protein approximately 20 µM, compound 50 µM; shift vs basal Tagg
T6 construct: His6 (thrombin cleavage site) (N); made in house; host or cells: E. coli BL21 Gold DE3
T6 sequence (P30405 49-205 limits assumed): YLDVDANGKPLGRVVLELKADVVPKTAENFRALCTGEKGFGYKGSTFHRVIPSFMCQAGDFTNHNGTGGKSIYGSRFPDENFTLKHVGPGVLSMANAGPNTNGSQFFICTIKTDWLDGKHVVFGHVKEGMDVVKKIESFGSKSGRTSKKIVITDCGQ
Source text: as §1, §2

PPIG [1] = biological target: T7, PPIG (Homo sapiens, UniProt Q13427); experiment: as above; assay type: binding; details: protein approximately 20 µM, compound 50 µM; shift vs basal Tagg
T7 construct: His6 (thrombin cleavage site) (N); made in house; host or cells: E. coli BL21 Gold DE3 (general method; the K125A/E126A crystallization mutant was grown in BL21 DE3 Codon Plus RIL)
T7 sequence (Q13427 11-176 limits assumed): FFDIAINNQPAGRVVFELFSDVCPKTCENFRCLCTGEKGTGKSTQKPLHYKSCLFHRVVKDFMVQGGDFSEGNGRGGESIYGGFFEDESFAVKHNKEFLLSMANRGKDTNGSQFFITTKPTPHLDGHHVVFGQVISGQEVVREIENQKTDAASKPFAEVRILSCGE
Source text: as §1, §2

PPIH = biological target: T8, PPIH (Homo sapiens, UniProt O43447); experiment: as above; assay type: binding; details: protein approximately 20 µM, compound 50 µM; shift vs basal Tagg
T8 construct: His6 (thrombin cleavage site) (N); made in house; host or cells: E. coli BL21 Gold DE3
T8 sequence (O43447 14-176 limits assumed): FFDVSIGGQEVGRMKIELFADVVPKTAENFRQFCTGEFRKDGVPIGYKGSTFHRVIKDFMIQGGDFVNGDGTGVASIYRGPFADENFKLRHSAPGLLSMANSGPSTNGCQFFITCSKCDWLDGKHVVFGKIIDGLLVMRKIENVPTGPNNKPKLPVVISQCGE
Source text: as §1, §2

PPIL1 = biological target: T9, PPIL1 (Homo sapiens, UniProt Q9Y3C6); experiment: as above; assay type: binding; details: protein approximately 20 µM, compound 50 µM; shift vs basal Tagg
T9 construct: His6 (thrombin cleavage site) (N); made in house; host or cells: E. coli BL21 Gold DE3
T9 sequence (Q9Y3C6 10-164 limits assumed): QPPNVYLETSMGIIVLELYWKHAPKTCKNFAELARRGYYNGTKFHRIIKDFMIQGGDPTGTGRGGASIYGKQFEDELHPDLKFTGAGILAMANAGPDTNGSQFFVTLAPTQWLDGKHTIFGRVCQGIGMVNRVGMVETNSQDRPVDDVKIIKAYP
Source text: as §1, §2

PPWD1 = biological target: T10, PPWD1 (Homo sapiens, UniProt Q96BP3); experiment: as above; assay type: binding; details: protein approximately 20 µM, compound 50 µM; shift vs basal Tagg
T10 construct: His6 with thrombin cleavage site (N); made in house; host or cells: E. coli BL21 Gold DE3
T10 sequence (Q96BP3 490-645 limits assumed): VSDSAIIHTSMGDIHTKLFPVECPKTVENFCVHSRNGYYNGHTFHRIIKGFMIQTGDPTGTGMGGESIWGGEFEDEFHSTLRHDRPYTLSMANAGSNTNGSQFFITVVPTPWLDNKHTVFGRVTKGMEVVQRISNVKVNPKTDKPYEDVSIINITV
Source text: as §1, §2

PPID = biological target: T11, PPID (Homo sapiens, UniProt Q08752); experiment: NMR-based tetrapeptide activity assay (1H/1H TOCSY); assay type: biochemical; details: collapse of substrate cis/trans peaks; at least one of suc-AAPF-pNA, suc-AFPF-pNA, suc-AGPF-pNA; 25°C
T11 construct: His6 (thrombin cleavage site) (N); made in house; host or cells: E. coli BL21 Gold DE3
T11 sequence (Q08752 19-183 limits assumed): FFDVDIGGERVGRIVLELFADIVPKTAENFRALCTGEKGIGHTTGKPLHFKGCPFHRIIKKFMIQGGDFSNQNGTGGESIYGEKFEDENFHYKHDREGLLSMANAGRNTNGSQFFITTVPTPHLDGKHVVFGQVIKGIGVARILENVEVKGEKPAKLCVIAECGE
Source text: (§3) A two-dimensional NMR experiment (1H/1H TOCSY) described previously,[40], the only in vitro protease-free method available to probe for both substrate binding and catalytic activity of cyclophilins, was used to assess the commercially available tetrapeptides of sequence AAPF, AFPF, and AGPF [34]. […] A number of articles have documented the drawbacks of the protease-coupled assay,[42]–[44], an obvious example being that the addition of protease to the reaction mixture in the chymotrypsin-coupled assay requires additional testing to ensure that the enzymes and substrates being screened are not proteolytic targets. […] We detected binding and turnover for at least one of the tetrapeptide substrates tested for PPIA, PPIB, PPIC, PPID, PPIE, PPIF, PPIG, PPIH, PPIL1, PPWD1, and NKTR (Table 1; see Figure S1 for representative data showing binding and activity). This correlated well with previously determined activities,[20],[21],[28],[30],[45],[46], and established activity measurements for PPIF, PPIG, and NKTR.
(§4) Most protein samples aimed at assessing binding and/or catalysis of tetrapeptide substrates were diluted to 500 µL with 10% D2O and placed into a Shigemi microcell (Allison Park, PA, USA). Typical samples contained 0.075 mM protein and 2 mM of suc-AAPF-pNA, suc-AFPF-pNA, or suc-AGPF-pNA (Bachem), along with 100 mM phosphate buffer pH 7 and 100 mM NaCl. Spectra were collected at 25°C on a Varian 600 or 900 MHz spectrometer (Palo Alto, CA, USA). Spectra were acquired using standard Varian BioPack sequences, processed using NMRpipe software and visualized using CCPN software. For samples used to assess binding of PPIA to peptides DEGPF, DFGPF, DYGPF, YGGPF, or VRGPF, samples were as above except protein concentration was 0.3 mM and spectra were collected at 10°C.

PPIG [2] = biological target: T7, PPIG; experiment: as above; assay type: biochemical; details: collapse of substrate cis/trans peaks; at least one of suc-AAPF-pNA, suc-AFPF-pNA, suc-AGPF-pNA; 25°C
Source text: as §3, §4

PPIL2 = biological target: T12, PPIL2 (Homo sapiens, UniProt Q13356); experiment: as above; assay type: biochemical
T12 construct: His6 with thrombin cleavage site (N); made in house; host or cells: E. coli BL21 Gold DE3
T12 sequence (Q13356 278-433 limits assumed): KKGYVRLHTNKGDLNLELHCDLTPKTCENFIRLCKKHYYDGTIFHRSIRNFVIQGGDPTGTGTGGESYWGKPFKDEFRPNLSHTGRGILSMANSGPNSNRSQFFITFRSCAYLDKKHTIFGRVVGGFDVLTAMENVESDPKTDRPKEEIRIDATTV
Source text: as §3, §4

SDCCAG-10 = biological target: T13, SDCCAG-10 (Homo sapiens, UniProt Q6UX04); experiment: as above; assay type: biochemical
T13 construct: His6 with thrombin cleavage site (N); made in house; host or cells: E. coli BL21 Gold DE3
T13 sequence (Q6UX04 11-166 limits assumed): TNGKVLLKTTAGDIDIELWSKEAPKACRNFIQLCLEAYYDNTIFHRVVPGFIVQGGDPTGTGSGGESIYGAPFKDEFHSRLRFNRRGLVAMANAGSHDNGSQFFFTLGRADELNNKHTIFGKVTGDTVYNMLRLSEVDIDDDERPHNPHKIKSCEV
Source text: as §3, §4

[3] = collapse of substrate cis/trans peaks, suc-AAPF-pNA, suc-AFPF-pNA, suc-AGPF-pNA, 25°C

Tetrapeptide Activity (PPID) | Tetrapeptide Activity (PPIG [2]) | Binding of substrate (peak centers shift without coalescence) (PPIL2; Figure S1A) | Tetrapeptide Activity (PPIL2; [3]) | Binding of substrate (peak centers shift without coalescence) (SDCCAG-10; Figure S1A) | Tetrapeptide Activity (SDCCAG-10; [3]) | Compound | Thermal Stability ΔTagg, CsC (NKTR) | Thermal Stability ΔTagg, CsC (PPIA) | Thermal Stability ΔTagg, CsC (PPIB) | Thermal Stability ΔTagg, CsC (PPIC) | Thermal Stability ΔTagg, CsC (PPIE) | Thermal Stability ΔTagg, CsC (PPIF) | Thermal Stability ΔTagg, CsC (PPIG [1]) | Thermal Stability ΔTagg, CsC (PPIH) | Thermal Stability ΔTagg, CsC (PPIL1) | Thermal Stability ΔTagg, CsC (PPWD1)
– | – | – | – | – | – | C/C=C/C[C@@H](C)[C@@H](O)[C@H]1C(=O)N[C@@H]([C@@H](C)O)C(=O)N(C)CC(=O)N(C)[C@@H](CC(C)C)C(=O)N[C@@H](C(C)C)C(=O)N(C)[C@@H](CC(C)C)C(=O)N[C@@H](C)C(=O)N[C@H](C)C(=O)N(C)[C@@H](CC(C)C)C(=O)N(C)[C@@H](CC(C)C)C(=O)N(C)[C@@H](C(C)C)C(=O)N1C [CsC, cyclosporin C] | 3.0 °C | 1.9 °C | 3.4 °C | 7.0 °C | 6.8 °C | 10.7 °C | 2 °C | 7.3 °C | 1.7 °C | 5.2 °C
active isomerases | active isomerases | binding, but not catalysis | not active | binding, but not catalysis | not active | suc-AGPF-pNA | – | – | – | – | – | – | – | – | – | –
